Test [1] concerns PDF1.2 mRNA. Description: MeJA treatment of plants, RNA gel blot of JA-responsive PDF1.2 mRNA. The class given is in vivo, Arabidopsis.
Test [2] concerns THI2.1 mRNA. Description: MeJA treatment of plants, RNA gel blot of JA-responsive THI2.1 mRNA. The class given is in vivo, Arabidopsis. Particulars: for THI2.1 mRNA accumulation after MeJA treatment: not shown.
The mark [3] stands for this setting: nahG expressing wild type plants.

For `CC/C=C\CC1C(=O)CCC1CC(=O)OC` (stereo not drawn) [MeJA, methyl jasmonate], the “PDF1.2 mRNA accumulation after MeJA treatment” value is recorded as “not inducible” in test [1] (mpk4/nahG plants) and “induced” in test [1] (setting [3]). Further, the “induction of PDF1.2 expression” value in test [1] (mpk4 mutant plants, sprayed with 50 μM MeJA, harvested after 48 hours) was “failed to induce”. Besides, the “THI2.1 mRNA accumulation after MeJA treatment” value in test [2] (mpk4/nahG plants) is “not inducible”; in test [2] (setting [3]) it was “induced”. In addition, the “induction of THI2.1 expression” value in test [2] (mpk4 mutant plants, sprayed with 50 μM MeJA, harvested after 48 hours, data not shown) is recorded as “failed to induce”.

(Values after US20040172685A1, “Method of using MAPK4 and orthologues thereof to control plant disease resistance and plant growth” (priority 1999, published 2004).)
